The values that follow come from US12630544B2, “Compound, α-synuclein aggregate binder, and use thereof” (NATIONAL INSTITUTES FOR QUANTUM SCIENCE AND TECHNOLOGY, priority 2020, dated 2026).

In data set [1] the target is T1, phosphorylated α-synuclein (Mus musculus, UniProt O55042).
T1 construct: from tissue; host or cells: brain of C57/BL/6 mouse inoculated in the striatum with recombinant (E. coli) mouse α-synuclein fibrils; sections or living animal
Nature of the data set: In vitro fluorescence microscope measurement, brain sections of α-synuclein fibril-inoculated mouse. The note with it: 30 μM compound, 20% ethanol, 30 minutes; mouse brain section. As to the method:
First, mouse α-synuclein was expressed in and extracted from E. coli as a recombinant protein, and then incubated in vitro to form insoluble α-synuclein aggregates. The α-synuclein aggregates were then inoculated into the striatum of a mouse. […] Note that the inoculation of the α-synuclein aggregates into the striatum of the mouse was carried out in the following manner. First, hair on the head of a 9-week-old C57/BL/6 male mouse which had been anesthetized with 1.5% (v/v) isoflurane was removed, and the scalp was disinfected with isodine, followed by application of xylocaine and incision in the scalp to expose the skull. […]
The brain of this α-synuclein fibril-inoculated mouse was extracted, and then sections were prepared. The sections were analyzed by fluorescent staining. […] After the section was mounted in a mounting medium (VECTASHIELD H-1000), an image of an α-synuclein aggregate-enriched area on the section was obtained with use of a fluorescence microscope (DM4000 (excitation wavelength: 391 nm to 437 nm)). […] After the section was subjected to immunohistochemical staining with use of an anti-phosphorylated α-synuclein monoclonal antibody (pS129, abcam, ab59264) (1:1000) and then mounted in a mounting medium (VECTASHIELD H-1000), an image of the same area as above was obtained with use of a fluorescence microscope (DM4000 (excitation wavelength: 460 nm to 500 nm)). […]

The target of another data set is T2, α-synuclein aggregates (Mus musculus, UniProt O55042).
T2 construct: from tissue; host or cells: brain of C57/BL/6 mouse inoculated in the striatum with recombinant (E. coli) mouse α-synuclein fibrils; sections or living animal
Put plainly: In vivo PET imaging of mouse brain (α-synuclein fibril-inoculated mouse vs physiological saline-injected mouse). The note with it: intravenous injection of 18F-labeled compound, 90 minutes scan. Here is the method:
(§1) First, mouse α-synuclein was expressed in and extracted from E. coli as a recombinant protein, and then incubated in vitro to form insoluble α-synuclein aggregates. The α-synuclein aggregates were then inoculated into the striatum of a mouse. […] Note that the inoculation of the α-synuclein aggregates into the striatum of the mouse was carried out in the following manner. First, hair on the head of a 9-week-old C57/BL/6 male mouse which had been anesthetized with 1.5% (v/v) isoflurane was removed, and the scalp was disinfected with isodine, followed by application of xylocaine and incision in the scalp to expose the skull. Then, a hole was drilled in the skull at a position of 0.05 mm posterior to the bregma and 2 mm lateral to the midline, and 3 μl of an α-synuclein fibril solution (mouse α-synuclein fibril (4 mg/ml) in saline) was injected into a position […] ventral to the brain surface with use of a glass pipette. The scalp was then returned and sutured.
PET scanning was carried out with use of a micro PET Focus 220 animal scanner (Siemens Medical Solutions), which provided 95 slices each having a thickness of 0.851 mm (center thickness), a […]. Before the scanning, an α-synuclein fibril-inoculated mouse and a physiological saline-injected mouse (control) were each anesthetized with 1.5% (v/v) isoflurane. […]

The next data set has as its target T3, α-synuclein lesion (Mus musculus, UniProt O55042).
T3 construct: from tissue; host or cells: brain of C57/BL/6 mouse inoculated in the striatum with recombinant (E. coli) mouse α-synuclein fibrils; sections or living animal
Nature of the data set: In vivo two-photon laser scanning fluorescence microscopy of α-synuclein fibril-inoculated model mouse. The note with it: 50 μl DMSO solution containing 0.1% compound, i.p. As to the method:
as §1
A model mouse was anesthetized with 1.5% (v/v) isoflurane 6 or more weeks after inoculation of an α-synuclein fibril solution. Then, a cranial window was placed on the model mouse in accordance with the Seylaz-Tomita method (Tomita et al. J Cereb Blood Flow Metab 25, 858-67, 2005). Two or more weeks after the placement of the cranial window, the mouse was anesthetized with 1.5% (v/v) isoflurane, and then 50 μl of a DMSO solution containing 0.1% BF-227, PBB3, SPAL-T-05, or SPAL-T-06 was intraperitoneally administered to the mouse. Thirty minutes after the administration, the mouse was fixed under a two-photon laser fluorescence microscope, 100 μl of physiological saline containing 5 mM Sulforhodamine 101 was intraperitoneally administered to the mouse, and then intravital two-photon fluorescence imaging was carried out at an excitation wavelength of 900 nm. Detection wavelengths for BF-227, PBB3, SPAL-T-05, and SPAL-T-06 were set at 500 nm to 550 nm, and a detection wavelength for Sulforhodamine 101 was set at 573 nm to 648 nm. In FIG. 4, each arrowhead indicates a blood vessel, and each arrow indicates fluorescence from the compound binding to an α-synuclein lesion.

Each structure is given as a SMILES string.

Take `CNc1cnc(C#C/C=C/c2nc3ccc(OCC(O)CF)cc3s2)cn1` (stereo not shown) [SPAL-T-06, (E)-1-fluoro-3-((2-(4-(5-(methylamino)pyrazin-2-yl)but-1-en-3-yn-1-yl)benzo[d]thiazol-6-yl)oxy)propan-2-ol]: the “binding to lesion caused by phosphorylated α-synuclein (fluorescent staining, co-stained with pS129 antibody)” value in data set [1] is on record as “bound to a lesion caused by phosphorylated α-synuclein”. Also, the “brain-entering property / clearance rate from the brain (PET)” value on α-synuclein aggregates is “adequate brain-entering property or an adequate clearance rate from the brains”. Also, on α-synuclein lesion (excitation 900 nm), the “detection of / binding to α-synuclein lesions in living mouse brain (two-photon fluorescence)” value is on record as “bound to α-synuclein lesions”. Further, the “delivery into the brain after intraperitoneal administration” value on α-synuclein lesion (imaging 30 minutes after administration) was “delivered into the brain and further into neurons of the living body”.
